Results reported in paper PMC3969223, “Characterization of WZ4003 and HTH-01-015 as selective inhibitors of the LKB1-tumour-suppressor-activated NUAK kinases” (Biochemical Journal, 2013).

What was measured:
Experiment in all cases: Kinase profiling
Details in all cases: 0.1 or 1 μM inhibitor; mean of triplicate
PINK = PINK (Tribolium castaneum, UniProt D6WMX4); assay type: biochemical, insect
Protocol: Kinase inhibitor specificity profiling assays were carried out at The International Centre for Protein Kinase Profiling (http://www.kinase-screen.mrc.ac.uk/) against a panel of 140 protein kinases as described previously. Results are presented as a percentage of kinase activity in DMSO control reactions. Protein kinases were assayed in vitro with 0.1 or 1 μM of the inhibitors and the results are presented as an average of triplicate reactions±S.D. or in the form of comparative histograms.

HIPK2 = HIPK2 (Homo sapiens, UniProt Q9H2X6); assay type: biochemical
How it was run: (§1)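 Read-out: % residual kinase activity vs DMSO control; mean of triplicates ±S.D. Inhibitor tested at 0.1 or 1 μM in vitro across a 140-kinase panel.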

ERK8 = ERK8 (Homo sapiens, UniProt Q8TD08); assay type: biochemical
How it was run: as §1

TSSK1 = TSSK1 (Homo sapiens, UniProt Q9BXA7); assay type: biochemical
p38γ MAPK = p38γ MAPK (Homo sapiens, UniProt P53778); assay type: biochemical
TLK1 = TLK1 (Homo sapiens, UniProt Q9UKI8); assay type: biochemical
How it was run: as §1

TTK = TTK (Homo sapiens, UniProt P33981); assay type: biochemical
How it was run: as §1

GSK3β = GSK3β (Homo sapiens, UniProt P49841); assay type: biochemical
Chain of GSK3β (P49841 whole entry): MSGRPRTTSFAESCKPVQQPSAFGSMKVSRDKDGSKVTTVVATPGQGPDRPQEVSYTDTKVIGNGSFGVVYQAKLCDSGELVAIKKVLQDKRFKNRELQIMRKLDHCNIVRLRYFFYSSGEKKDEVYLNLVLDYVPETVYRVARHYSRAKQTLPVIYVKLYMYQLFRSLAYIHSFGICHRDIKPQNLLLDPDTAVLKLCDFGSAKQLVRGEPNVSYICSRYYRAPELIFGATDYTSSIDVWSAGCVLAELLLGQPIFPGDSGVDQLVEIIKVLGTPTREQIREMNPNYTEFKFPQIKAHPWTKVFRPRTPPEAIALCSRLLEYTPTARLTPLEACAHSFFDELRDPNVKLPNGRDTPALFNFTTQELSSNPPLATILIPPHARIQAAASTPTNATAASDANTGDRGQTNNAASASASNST

MPSK1 = MPSK1 (Homo sapiens, UniProt O75716); assay type: biochemical
How it was run: as §1

DDR2 = DDR2 (Homo sapiens, UniProt Q16832); assay type: biochemical
How it was run: as §1

PIM1 = PIM1 (Homo sapiens, UniProt P11309); assay type: biochemical
PDGFRA = PDGFRA (Homo sapiens, UniProt P16234); assay type: biochemical
How it was run: as §1

NEK2α = NEK2α (Homo sapiens, UniProt P51955); assay type: biochemical
How it was run: as §1

ULK1 = ULK1 (Homo sapiens, UniProt O75385); assay type: biochemical
How it was run: as §1

PAK2 = PAK2 (Homo sapiens, UniProt Q13177); assay type: biochemical
How it was run: as §1

JNK3 = JNK3 (Homo sapiens, UniProt P53779); assay type: biochemical
How it was run: as §1

TBK1 = TBK1 (Homo sapiens, UniProt Q9UHD2); assay type: biochemical
How it was run: as §1

CK2 = CK2 (Homo sapiens, UniProt P68400); assay type: biochemical
Chain of CK2 (P68400 whole entry): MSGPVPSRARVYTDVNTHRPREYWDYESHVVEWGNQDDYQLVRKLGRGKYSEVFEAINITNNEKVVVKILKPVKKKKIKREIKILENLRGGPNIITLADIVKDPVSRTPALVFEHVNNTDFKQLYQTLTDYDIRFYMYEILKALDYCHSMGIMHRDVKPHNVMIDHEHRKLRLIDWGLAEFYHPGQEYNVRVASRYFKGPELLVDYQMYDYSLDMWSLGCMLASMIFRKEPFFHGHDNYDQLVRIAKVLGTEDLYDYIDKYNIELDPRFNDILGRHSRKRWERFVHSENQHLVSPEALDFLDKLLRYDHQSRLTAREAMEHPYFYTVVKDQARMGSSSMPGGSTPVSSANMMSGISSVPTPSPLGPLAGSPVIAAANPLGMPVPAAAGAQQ

CK1δ = CK1δ (Homo sapiens, UniProt P48730); assay type: biochemical
How it was run: as §1

FGF-R1 = FGF-R1 (Homo sapiens, UniProt P11362); assay type: biochemical
How it was run: as §1

ERK5 = ERK5 (Homo sapiens, UniProt Q13164); assay type: biochemical
How it was run: as §1

DAPK1 = DAPK1 (Homo sapiens, UniProt P53355); assay type: biochemical
How it was run: as §1

DYRK1A = DYRK1A (Homo sapiens, UniProt Q13627); assay type: biochemical
SIK3 = SIK3 (Homo sapiens, UniProt Q9Y2K2); assay type: biochemical
Chain of SIK3 (Q9Y2K2 whole entry): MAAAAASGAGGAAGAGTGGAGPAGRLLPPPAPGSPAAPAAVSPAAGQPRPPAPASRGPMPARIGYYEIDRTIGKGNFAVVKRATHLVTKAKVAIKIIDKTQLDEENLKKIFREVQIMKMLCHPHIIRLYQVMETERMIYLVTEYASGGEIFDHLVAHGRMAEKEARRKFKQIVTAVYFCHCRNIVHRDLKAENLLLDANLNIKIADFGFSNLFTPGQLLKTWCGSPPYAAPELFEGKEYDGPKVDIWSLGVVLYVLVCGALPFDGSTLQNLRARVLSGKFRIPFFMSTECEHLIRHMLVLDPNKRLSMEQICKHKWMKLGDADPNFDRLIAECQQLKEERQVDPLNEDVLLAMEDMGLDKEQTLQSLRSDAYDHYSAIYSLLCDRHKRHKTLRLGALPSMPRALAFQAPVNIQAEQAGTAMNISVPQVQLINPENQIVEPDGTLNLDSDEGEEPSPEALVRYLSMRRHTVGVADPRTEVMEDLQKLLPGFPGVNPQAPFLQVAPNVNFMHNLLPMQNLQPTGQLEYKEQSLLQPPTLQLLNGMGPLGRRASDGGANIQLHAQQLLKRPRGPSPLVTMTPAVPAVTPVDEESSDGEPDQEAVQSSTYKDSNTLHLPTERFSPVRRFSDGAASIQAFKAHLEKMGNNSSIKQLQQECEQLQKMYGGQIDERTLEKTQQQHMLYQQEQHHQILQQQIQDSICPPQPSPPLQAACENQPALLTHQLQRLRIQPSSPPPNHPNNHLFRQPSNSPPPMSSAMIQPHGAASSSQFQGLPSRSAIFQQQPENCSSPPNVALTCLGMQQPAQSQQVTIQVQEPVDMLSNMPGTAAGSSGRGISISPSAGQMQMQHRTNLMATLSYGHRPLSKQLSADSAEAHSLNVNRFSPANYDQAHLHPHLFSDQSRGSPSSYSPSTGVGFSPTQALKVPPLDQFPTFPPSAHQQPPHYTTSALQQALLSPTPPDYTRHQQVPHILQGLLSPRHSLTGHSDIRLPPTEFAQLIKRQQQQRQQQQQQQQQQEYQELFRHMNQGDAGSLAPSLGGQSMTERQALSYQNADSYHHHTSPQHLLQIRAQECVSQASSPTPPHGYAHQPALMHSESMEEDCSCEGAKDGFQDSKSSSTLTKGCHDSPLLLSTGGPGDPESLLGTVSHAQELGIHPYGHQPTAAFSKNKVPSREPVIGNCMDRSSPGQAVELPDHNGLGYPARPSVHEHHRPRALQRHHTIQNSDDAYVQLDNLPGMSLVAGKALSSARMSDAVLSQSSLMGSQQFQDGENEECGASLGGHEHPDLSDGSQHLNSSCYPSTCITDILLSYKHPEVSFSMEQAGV
How it was run: as §1

MARK4 = MARK4 (Homo sapiens, UniProt Q96L34); assay type: biochemical
HIPK1 = HIPK1 (Homo sapiens, UniProt Q86Z02); assay type: biochemical
Chain of HIPK1 (Q86Z02 whole entry): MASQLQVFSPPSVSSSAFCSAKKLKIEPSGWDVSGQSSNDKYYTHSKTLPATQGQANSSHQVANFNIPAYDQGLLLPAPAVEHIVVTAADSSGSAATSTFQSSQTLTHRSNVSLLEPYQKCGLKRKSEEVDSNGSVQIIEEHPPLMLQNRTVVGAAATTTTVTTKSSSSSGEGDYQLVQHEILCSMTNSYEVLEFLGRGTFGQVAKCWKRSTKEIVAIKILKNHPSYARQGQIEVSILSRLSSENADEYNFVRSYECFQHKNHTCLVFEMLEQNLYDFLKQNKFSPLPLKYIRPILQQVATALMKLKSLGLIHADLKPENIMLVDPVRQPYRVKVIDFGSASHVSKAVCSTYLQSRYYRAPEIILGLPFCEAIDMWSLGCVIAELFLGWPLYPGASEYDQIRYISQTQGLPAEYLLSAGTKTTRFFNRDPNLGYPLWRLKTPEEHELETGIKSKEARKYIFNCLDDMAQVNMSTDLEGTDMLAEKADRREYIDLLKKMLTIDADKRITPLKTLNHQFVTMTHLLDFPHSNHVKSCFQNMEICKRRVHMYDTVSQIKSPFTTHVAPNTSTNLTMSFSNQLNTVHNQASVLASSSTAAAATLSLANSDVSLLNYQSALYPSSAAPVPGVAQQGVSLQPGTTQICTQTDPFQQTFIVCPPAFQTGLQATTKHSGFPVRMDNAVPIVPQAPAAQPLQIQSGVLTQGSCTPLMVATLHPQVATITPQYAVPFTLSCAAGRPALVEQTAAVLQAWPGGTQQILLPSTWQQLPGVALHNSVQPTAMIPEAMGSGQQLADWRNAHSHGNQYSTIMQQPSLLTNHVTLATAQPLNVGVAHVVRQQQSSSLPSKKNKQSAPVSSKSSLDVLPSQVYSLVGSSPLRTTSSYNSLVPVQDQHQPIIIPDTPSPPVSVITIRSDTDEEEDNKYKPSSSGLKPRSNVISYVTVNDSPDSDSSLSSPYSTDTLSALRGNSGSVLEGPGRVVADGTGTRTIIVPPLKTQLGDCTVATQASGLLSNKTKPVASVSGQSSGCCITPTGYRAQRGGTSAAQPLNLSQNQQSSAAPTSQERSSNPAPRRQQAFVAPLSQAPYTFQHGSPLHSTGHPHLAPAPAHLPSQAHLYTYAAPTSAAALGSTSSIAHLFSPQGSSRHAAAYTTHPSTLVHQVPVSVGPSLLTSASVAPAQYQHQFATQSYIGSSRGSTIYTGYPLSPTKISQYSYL
How it was run: as §1

CDK2-Cyclin A = CDK2-Cyclin A (Homo sapiens, UniProt P24941); assay type: biochemical
How it was run: as §1

RIPK2 = RIPK2 (Homo sapiens, UniProt O43353); assay type: biochemical
How it was run: as §1

MAPKAP-K2 = MAPKAP-K2 (Homo sapiens, UniProt P49137); assay type: biochemical
How it was run: as §1

MLK1 = MLK1 (Homo sapiens, UniProt P80192); assay type: biochemical
Chain of MLK1 (P80192 whole entry): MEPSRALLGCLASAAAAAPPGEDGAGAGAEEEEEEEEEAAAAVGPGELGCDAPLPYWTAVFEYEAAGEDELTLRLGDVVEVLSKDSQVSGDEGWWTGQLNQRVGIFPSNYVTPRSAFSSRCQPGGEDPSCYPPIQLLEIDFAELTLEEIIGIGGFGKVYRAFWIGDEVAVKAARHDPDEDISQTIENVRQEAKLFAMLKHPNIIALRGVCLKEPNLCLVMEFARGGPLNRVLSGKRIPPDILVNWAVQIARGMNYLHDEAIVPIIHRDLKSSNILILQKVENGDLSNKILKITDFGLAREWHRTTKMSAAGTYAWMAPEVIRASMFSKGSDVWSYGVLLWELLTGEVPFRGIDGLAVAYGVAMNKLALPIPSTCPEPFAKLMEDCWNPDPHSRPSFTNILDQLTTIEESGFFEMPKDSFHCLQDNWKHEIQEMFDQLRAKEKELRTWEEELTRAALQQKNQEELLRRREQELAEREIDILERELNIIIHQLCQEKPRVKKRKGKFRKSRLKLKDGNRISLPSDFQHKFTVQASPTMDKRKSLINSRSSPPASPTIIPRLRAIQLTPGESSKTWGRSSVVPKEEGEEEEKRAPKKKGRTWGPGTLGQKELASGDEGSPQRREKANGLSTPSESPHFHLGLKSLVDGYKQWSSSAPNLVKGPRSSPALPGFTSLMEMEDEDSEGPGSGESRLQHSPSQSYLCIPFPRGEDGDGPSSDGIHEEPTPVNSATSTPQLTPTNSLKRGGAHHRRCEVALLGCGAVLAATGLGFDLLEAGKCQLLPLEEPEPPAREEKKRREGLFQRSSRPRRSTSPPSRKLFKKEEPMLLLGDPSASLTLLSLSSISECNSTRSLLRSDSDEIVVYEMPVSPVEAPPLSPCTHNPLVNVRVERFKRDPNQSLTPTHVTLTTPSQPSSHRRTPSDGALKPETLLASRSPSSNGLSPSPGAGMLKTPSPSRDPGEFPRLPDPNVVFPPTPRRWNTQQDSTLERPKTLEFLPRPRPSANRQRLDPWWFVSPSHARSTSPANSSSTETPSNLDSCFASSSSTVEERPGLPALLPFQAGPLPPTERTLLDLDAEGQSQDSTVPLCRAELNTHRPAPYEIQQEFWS
How it was run: as §1

PRK2 = PRK2 (Homo sapiens, UniProt Q16513); assay type: biochemical
PRAK = PRAK (Homo sapiens, UniProt Q8IW41); assay type: biochemical
How it was run: as §1

SRPK1 = SRPK1 (Homo sapiens, UniProt Q96SB4); assay type: biochemical
How it was run: as §1

EPH-A4 = EPH-A4 (Homo sapiens, UniProt P54764); assay type: biochemical
How it was run: as §1

IRAK1 = IRAK1 (Homo sapiens, UniProt P51617); assay type: biochemical
How it was run: as §1

p38δ MAPK = p38δ MAPK (Homo sapiens, UniProt O15264); assay type: biochemical
How it was run: as §1

TTBK2 = TTBK2 (Homo sapiens, UniProt Q6IQ55); assay type: biochemical
How it was run: as §1

YES1 = YES1 (Homo sapiens, UniProt P07947); assay type: biochemical
How it was run: as §1

PKBβ = PKBβ (Homo sapiens, UniProt P31751); assay type: biochemical
How it was run: as §1

PKBα = PKBα (Homo sapiens, UniProt P31749); assay type: biochemical
Chain of PKBα (P31749 whole entry): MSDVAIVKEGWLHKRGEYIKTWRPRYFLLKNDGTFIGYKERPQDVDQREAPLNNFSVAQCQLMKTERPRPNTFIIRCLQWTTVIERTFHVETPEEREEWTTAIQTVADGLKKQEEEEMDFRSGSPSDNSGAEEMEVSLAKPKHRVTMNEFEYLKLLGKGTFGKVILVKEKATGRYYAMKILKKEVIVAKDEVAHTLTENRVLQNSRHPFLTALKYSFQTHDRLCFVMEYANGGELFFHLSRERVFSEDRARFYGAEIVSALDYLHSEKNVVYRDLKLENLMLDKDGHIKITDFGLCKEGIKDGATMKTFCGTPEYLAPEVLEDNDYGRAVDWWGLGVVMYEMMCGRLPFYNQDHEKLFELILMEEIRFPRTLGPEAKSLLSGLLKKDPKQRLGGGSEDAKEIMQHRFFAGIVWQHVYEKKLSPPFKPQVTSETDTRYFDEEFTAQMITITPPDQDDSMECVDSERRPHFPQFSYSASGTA
How it was run: as §1

IR = IR (Homo sapiens, UniProt P06213); assay type: biochemical
How it was run: as §1

MAP4K5 = MAP4K5 (Homo sapiens, UniProt Q9Y4K4); assay type: biochemical
How it was run: as §1

Cc1nc(Nc2cnn(C3CCNCC3)c2)nc2c1N(C)C(=O)c1cc3ccccc3cc1N2C [HTH-01-015]
PINK activity, percentage of DMSO control (PINK): 99 percentage | HIPK2 activity, percentage of DMSO control (HIPK2): 107 percentage | ERK8 activity, percentage of DMSO control (ERK8): 98 percentage | TSSK1 activity, percentage of DMSO control (TSSK1): 95 percentage | p38γ MAPK activity, percentage of DMSO control (p38γ MAPK): 100 percentage | TLK1 activity, percentage of DMSO control (TLK1): 106 percentage | TTK activity, percentage of DMSO control (TTK): 118 percentage | GSK3β activity, percentage of DMSO control (GSK3β): 119 percentage | MPSK1 activity, percentage of DMSO control (MPSK1): 103 percentage | DDR2 activity, percentage of DMSO control (DDR2): 91 percentage | PIM1 activity, percentage of DMSO control (PIM1): 92 percentage | PDGFRA activity, percentage of DMSO control (PDGFRA): 109 percentage | NEK2α activity, percentage of DMSO control (NEK2α): 103 percentage | ULK1 activity, percentage of DMSO control (ULK1): 132 percentage | PAK2 activity, percentage of DMSO control (PAK2): 125 percentage | JNK3 activity, percentage of DMSO control (JNK3): 101 percentage | TBK1 activity, percentage of DMSO control (TBK1): 112 percentage | CK2 activity, percentage of DMSO control (CK2): 120 percentage | CK1δ activity, percentage of DMSO control (CK1δ): 94 percentage | FGF-R1 activity, percentage of DMSO control (FGF-R1): 105 percentage | ERK5 activity, percentage of DMSO control (ERK5): 121 percentage | DAPK1 activity, percentage of DMSO control (DAPK1): 100 percentage | DYRK1A activity, percentage of DMSO control (DYRK1A): 89 percentage | SIK3 activity, percentage of DMSO control (SIK3): 109 percentage | MARK4 activity, percentage of DMSO control (MARK4): 75 percentage | HIPK1 activity, percentage of DMSO control (HIPK1): 107 percentage | CDK2-Cyclin A activity, percentage of DMSO control (CDK2-Cyclin A): 96 percentage | RIPK2 activity, percentage of DMSO control (RIPK2): 88 percentage | MAPKAP-K2 activity, percentage of DMSO control (MAPKAP-K2): 118 percentage | MLK1 activity, percentage of DMSO control (MLK1): 102 percentage | PRK2 activity, percentage of DMSO control (PRK2): 112 percentage | PRAK activity, percentage of DMSO control (PRAK): 105 percentage | SRPK1 activity, percentage of DMSO control (SRPK1): 103 percentage | EPH-A4 activity, percentage of DMSO control (EPH-A4): 94 percentage | IRAK1 activity, percentage of DMSO control (IRAK1): 103 percentage | p38δ MAPK activity, percentage of DMSO control (p38δ MAPK): 113 percentage | TTBK2 activity, percentage of DMSO control (TTBK2): 102 percentage | YES1 activity, percentage of DMSO control (YES1): 76 percentage | PKBβ activity, percentage of DMSO control (PKBβ): 104 percentage | PKBα activity, percentage of DMSO control (PKBα): 87 percentage | IR activity, percentage of DMSO control (IR): 105 percentage | MAP4K5 activity, percentage of DMSO control (MAP4K5): 106 percentage

CCC(=O)Nc1cccc(Oc2nc(Nc3ccc(N4CCN(C)CC4)cc3OC)ncc2Cl)c1 [WZ4003]
TLK1 activity, percentage of DMSO control (TLK1): 91 percentage | GSK3β activity, percentage of DMSO control (GSK3β): 88 percentage | MPSK1 activity, percentage of DMSO control (MPSK1): 107 percentage | NEK2α activity, percentage of DMSO control (NEK2α): 110 percentage | ULK1 activity, percentage of DMSO control (ULK1): 52 percentage | PAK2 activity, percentage of DMSO control (PAK2): 92 percentage | CK2 activity, percentage of DMSO control (CK2): 76 percentage | FGF-R1 activity, percentage of DMSO control (FGF-R1): 66 percentage | DYRK1A activity, percentage of DMSO control (DYRK1A): 102 percentage | SIK3 activity, percentage of DMSO control (SIK3): 102 percentage | HIPK1 activity, percentage of DMSO control (HIPK1): 103 percentage | RIPK2 activity, percentage of DMSO control (RIPK2): 105 percentage | MLK1 activity, percentage of DMSO control (MLK1): 69 percentage | PRAK activity, percentage of DMSO control (PRAK): 94 percentage | PKBβ activity, percentage of DMSO control (PKBβ): 114 percentage | PKBα activity, percentage of DMSO control (PKBα): 98 percentage | MAP4K5 activity, percentage of DMSO control (MAP4K5): 108 percentage
